Here are results for 14 compounds from patent US20110071197A1, “BIS-ARYL COMPOUNDS FOR USE AS MEDICAMENTS” (priority 2008, published 2011).

In the assay the target is T1, Recombinant human LTC4 synthase (Homo sapiens, UniProt Q16873).
T1 construct: made in house; host or cells: Pichia pastoris
T1 sequence (Q16873 1-150): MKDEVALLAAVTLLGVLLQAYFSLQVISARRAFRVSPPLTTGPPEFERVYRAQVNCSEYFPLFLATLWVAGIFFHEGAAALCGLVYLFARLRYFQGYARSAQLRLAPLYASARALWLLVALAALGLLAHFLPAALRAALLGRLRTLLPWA
Put plainly: LTC4 synthase in vitro assay (HTRF detection of LTC4). Type of assay: biochemical. The following applies: HTRF method; for inhibition at 10 µM / % inh.: total concentration of title compound in the assay 10 μM. In outline:
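Pichia-expressed recombinant human LTC4 synthase at 0.5 μg/ml total protein in PBS pH 7.4 with 5 mM GSH, preincubated 10 min at RT with inhibitor (10 μM final). LTA4 (2.5 μM final) was then added for 5 min at RT. LTC4 formed was read by HTRF.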
A general note: TR-FRET usually uses a lanthanide donor and a delayed reading to cut background.

The term inhibition denotes the percentage by which the read-out fell short of the control. As to `CC(C)Oc1ccc(C(=O)Nc2ccc(Oc3ccc(S(=O)(=O)Nc4ccc(F)c(F)c4)cc3)cc2C(=O)O)cc1` [25:6, 5-[4-(3,4-Difluoro-phenylsulfamoyl)-phenoxy]-2-(4-isopropoxybenzoyl-amino)benzoic acid], the inhibition at 10 µM came out at 100%.

With `CCCCOc1ccc(S(=O)(=O)NC(=O)Cc2cccc(Oc3ccc(Nc4ccc(Cl)cc4)c(C(=O)O)c3)c2)cc1` [26:1, 5-{3-[2-(4-Butoxybenzenesulfonyl-amino)-2-oxoethyl]phenoxy}-2-(4-chlorophenylamino)benzoic acid], the inhibition at 3 µM (compound concentration 3 μM) stood at 94%.

On to `O=C(Cc1cccc(Oc2ccc(Nc3ccc(Cl)cc3)c(C(=O)O)c2)c1)NS(=O)(=O)c1ccc(F)c(F)c1` [26:2, 2-(4-Chlorophenylamino)-5-{3-[2-(3,4-difluorobenzenesulfonylamino)-2-oxoethyl]phenoxy}benzoic acid], for which the inhibition at 10 µM amounted to 93%.

In the case of `CCCCOc1ccc(S(=O)(=O)Nc2ccc(Oc3cccc(CC(=O)NS(=O)(=O)c4ccc(F)c(F)c4)c3)cc2C(=O)OC(C)(C)C)cc1` [26:3], the “% inh.” value turned out to be 95%.

Consider `CCCCOc1ccc(S(=O)(=O)Nc2ccc(Oc3cccc(CC(=O)NS(=O)(=O)c4ccc(F)c(F)c4)c3)cc2C(=O)O)cc1` [26:4, 2-(4-Butoxybenzenesulfonylamino)-5-{3-[2-(3,4-difluorobenzenesulfonyl-amino)-2-oxoethyl]phenoxy}benzoic acid], for which the inhibition at 10 µM turned out to be 95%.

For `CCCCOc1ccc(S(=O)(=O)Nc2ccc(Oc3cccc(CC(=O)NS(=O)(=O)c4cccc(Cl)c4F)c3)cc2C(=O)O)cc1` [26:5, 2-(4-Butoxybenzenesulfonylamino)-5-{3-[2-(3-chloro-2-fluorobenzene-sulfonylamino)-2-oxoethyl]phenoxy}-benzoic acid], the inhibition at 10 µM worked out at 99%.

Take `CCCCOc1ccc(S(=O)(=O)Nc2ccc(Oc3ccc(Nc4ccc(F)c(F)c4)cc3C(=O)O)cc2C(=O)O)cc1` [Example 1:9, 2-(4-butoxybenzenesulfonyl-amino)-5-[4-(2-carboxy)(3,4-di-fluorophenylamino)phenoxy]-benzoic acid]: the “% inh.” value was 100%.

For `CCCCc1ccc(C(=O)Nc2ccc(Oc3ccc(NS(=O)(=O)c4ccccc4)c(C(=O)OC)c3)cc2C(=O)O)cc1` [Example 7:1, 2-(4-butylbenzamido)-5-(3-(methoxycarbonyl)-4-(phenylsulfonamido)-phenoxy)benzoic acid], the inhibition at 10 µM was 95%.

For the compound `CCCCc1ccc(C(=O)Nc2ccc(Oc3ccc(NS(=O)(=O)c4ccccc4)c(C(=O)O)c3)cc2C(=O)O)cc1` [Example 7:2], the “% inh.” value amounted to 100%.

For `CC(C)(C)c1ccc(C(=O)Nc2ccc(Oc3ccc(NC(=O)c4ccc(Cl)cc4Cl)c(C(=O)O)c3)cc2)cc1` [Example 8:1, 5-(4-(4-tert-butylbenzamido)-phenoxy)-2-(2,4-dichlorobenz-amido)benzoic acid], the “% inh.” value is listed as 100%.

For the compound `CC(C)(C)c1ccc(C(=O)Nc2ccc(Oc3ccc(NC(=O)c4ccccc4Cl)c(C(=O)O)c3)cc2)cc1` [Example 8:15, 5-[4-(4-tert-Butylbenzoyl-amino)phenoxy]-2-(2-chloro-benzoylino)benzoic acid], the “% inh.” value was 98%.

Consider `CCCCc1ccc(S(=O)(=O)Nc2ccc(Oc3ccc(NC(=O)c4ccc(C(F)(F)F)cc4)c(C(=O)O)c3)cc2)cc1` [Example 11:1, 5-[4-(4-butylbenzene-sulfonylamino)phenoxy]-2-(4-trifluoromethylbenzoylamino)-benzoic acid], for which the inhibition at 10 µM was found to be 99%.

For the compound `O=C(O)c1cc(Oc2ccc(Nc3ccc(F)cc3)cc2)ccc1Nc1ccc(F)c(F)c1` [Example 12:1, 2-(3,4-difluorophenylamino)-5-(4-(4-fluorophenylamino)-phenoxy)benzoic acid], the inhibition at 10 µM stood at 96%.

Consider `O=C(O)c1cc(Sc2ccc(Nc3ccc(Cl)cc3)cc2)ccc1Nc1ccc(Cl)cc1` [Example 14:1, 2-(4-chlorophenylamino)-5-[4-(4-chlorophenylamino)-phenylsulfanyl]benzoic acid], for which the inhibition at 10 µM was 98%.
